Data set [1] has as its system Grp78. The data set is described as follows: Grp78 immunoblot in patient PBMCs. It is filed as in vivo, human (pediatric patients). Particulars: three evaluable of seven samples (four degraded); vs pre-treatment.
For data set [2] the following is noted: no reference given, cited from earlier work.
Data set [3] concerns NF-κB. The data set can be described thus: NF-κB activity by ELISA in patient PBMCs. It is filed as in vivo, human (pediatric patients).
The test system of data set [4] is solid tumor. Conditions: Pediatric Preclinical Testing Program (PPTP); cited from earlier work.
Data set [5] can be described thus: Bortezomib plasma pharmacokinetics, day 8 cycle 1, three-compartment model. Type of data set: in vivo, human (pediatric patients).
The conditions of data set [6]: Pediatric Preclinical Testing Program (PPTP); cited from earlier work.
For data set [7] the following is noted: prior pediatric single agent trials; cited from earlier work.
The conditions of data set [8]: cited from earlier work.
Data set [9] is described as follows: Phase I trial: toxicity, dose-limiting toxicities, MTD. It is filed as in vivo, human (pediatric patients). Particulars: for recommended phase 2 dose, vorinostat part of the combination: with bortezomib.
The conditions of data set [10]: single agent, children with recurrent or refractory cancer; cited from earlier work.
The nature of data set [11]: Vorinostat pharmacokinetics, day 8 cycle 1, noncompartmental.
Where [12] appears, read: Mean, n=6, single intravenous dose of 1.3 mg/m^2, day 8 cycle 1, plasma.

We go through 2 compounds from publication PMC3511610 (Pediatric blood & cancer, 2012).

“Also recorded” adds a separate entry of the source.

For the compound `CC(C)C[C@H](NC(=O)[C@H](Cc1ccccc1)NC(=O)c1cnccn1)B(O)O` [bortezomib, Bortezomib], the “Grp78 protein expression in PBMCs after bortezomib treatment” value in data set [1] is “no induction of Grp78 detected; also recorded: not able to detect Grp78 induction”. The “adult MTD” value in [2] is 1.3 mg/m^2/day. In addition, the “pretreatment NF-κB activity levels in PBMCs compared to levels 24 hours after bortezomib administration” value in [3] (Figure 1, 0 vs 24 hours) is recorded as “the same or increased”. The “NF-κB activity in PBMCs after bortezomib treatment” value in data set [3] (PBMCs from solid tumor patients, with vorinostat) was “did not observe a decrease in NF-κB activity”. Further, in data set [3] (in approximately half of the patient samples), the “NF-κB activation in PBMCs at 24 hours” value is listed as “increase in NF-κB activation”. Moreover, in data set [4], the “in vivo solid tumor activity” value is “limited to rhabdomyosarcoma, Wilms tumor, osteosarcoma, and medulloblastoma”. Further, in [5] (setting [12]), the “Cl (clearance)” value was 9.1 L/hr/m^2 and the “Vc (volume of distribution in the central compartment)” value came out at 13 L/m^2. Besides, the “plasma concentrations prior to the day 8 dose” value in [5] (cycle 1, dosed every three days, suggests accumulation) is listed as “low plasma concentrations”. In [5] (human, plasma, iv, 1.3 mg/m2), this compound registered an AUC(0-inf) of 485 ng·h/mL and an AUC(0-t) of 82 ng·h/mL. Also, in data set [6], the “in vitro anti-tumor activity” value was “widespread in vitro anti-tumor activity”. Further, the “Dose-limiting toxicities (DLTs)” value in [7] is “thrombocytopenia, confusion, and febrile neutropenia associated with hypotension and an elevated creatinine”. For the same compound, in data set [8] (days 1, 4, 8, and 11, with vorinostat), the “recommended phase 2 regimen in adults with solid tumors, bortezomib dose” value was 1.3 mg/m^2/dose. Also, the “MTD, bortezomib part of the combination” value in [9] (i.v. days 1, 4, 8, 11, with vorinostat 230 mg/m^2/day, bortezomib not escalated) worked out at 1.3 mg/m^2/day.
With `O=C(CCCCCCC(=O)Nc1ccccc1)NO` [vorinostat, Vorinostat], the adult recommended dose in data set [2] (daily) was 400 mg. In data set [10], the DLTs result is “neutropenia, thrombocytopenia, and hypokalemia”. Also, the Tmax in data set [11] (human, serum, po, 180 mg/m^2) came out at 6 h. For the same compound, the mean apparent clearance in [11] (mean over patients, dose levels 180–300 mg/m^2 oral, day 8 cycle 1) worked out at 198 L/m^2. Also, the “recommended phase 2 regimen in adults with solid tumors, vorinostat dose” value in [8] (daily for eight days every 21 days, with bortezomib) was 400 mg. In addition, in data set [9] (PO days 1–5 and 8–12, with bortezomib 1.3 mg/m^2/day days 1, 4, 8, 11), the “MTD, vorinostat part of the combination” value is 230 mg/m^2/day. In addition, the “recommended phase 2 dose, vorinostat part of the combination” value in data set [9] (PO days 1–5 and 8–12 of a 21 day cycle) stood at 230 mg/m^2/day; in data set [9] (orally days 1–5 and 8–12 of a 21 day cycle) it was 230 mg/m^2/dose.
